This is an account of results in BindingDB's records for doi:10.1016/0006-2952(86)90769-0 (Wyeth Laboratories, 1986).

The target in test [1] is T1, Alpha-2C adrenergic receptor (Rattus norvegicus, UniProt P22086).
T1 sequence (P22086 whole entry): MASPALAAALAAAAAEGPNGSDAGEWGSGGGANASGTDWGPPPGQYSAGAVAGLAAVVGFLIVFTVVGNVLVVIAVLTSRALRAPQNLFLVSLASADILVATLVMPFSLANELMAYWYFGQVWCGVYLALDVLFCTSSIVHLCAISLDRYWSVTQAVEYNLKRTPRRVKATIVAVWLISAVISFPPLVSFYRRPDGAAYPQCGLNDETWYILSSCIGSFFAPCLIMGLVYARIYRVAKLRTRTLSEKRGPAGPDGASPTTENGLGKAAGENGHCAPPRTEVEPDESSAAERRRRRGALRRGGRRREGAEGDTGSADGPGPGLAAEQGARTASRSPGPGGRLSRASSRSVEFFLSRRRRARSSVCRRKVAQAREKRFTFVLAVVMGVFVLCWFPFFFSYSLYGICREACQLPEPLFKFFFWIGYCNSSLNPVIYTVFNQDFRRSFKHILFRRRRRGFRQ

In test [2] the target is T2, Muscarinic acetylcholine receptor M2 (Rattus norvegicus, UniProt P10980).
T2 sequence (P10980 whole entry): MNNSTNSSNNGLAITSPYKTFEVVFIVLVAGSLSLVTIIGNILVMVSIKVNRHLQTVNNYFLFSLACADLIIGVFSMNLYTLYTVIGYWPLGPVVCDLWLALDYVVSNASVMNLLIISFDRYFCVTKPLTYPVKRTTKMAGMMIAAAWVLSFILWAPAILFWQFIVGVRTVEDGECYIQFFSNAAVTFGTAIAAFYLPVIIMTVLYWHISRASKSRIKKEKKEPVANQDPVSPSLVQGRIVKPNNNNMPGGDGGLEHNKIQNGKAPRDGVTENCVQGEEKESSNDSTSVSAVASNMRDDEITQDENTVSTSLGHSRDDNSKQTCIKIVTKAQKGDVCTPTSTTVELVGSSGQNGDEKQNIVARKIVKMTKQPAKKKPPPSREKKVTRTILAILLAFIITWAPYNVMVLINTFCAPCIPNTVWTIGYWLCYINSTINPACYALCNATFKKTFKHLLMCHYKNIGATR

The next test addresses Histamine H1 receptor (Rattus norvegicus, UniProt P31390).

Chain of Histamine H1 receptor (P31390 whole entry): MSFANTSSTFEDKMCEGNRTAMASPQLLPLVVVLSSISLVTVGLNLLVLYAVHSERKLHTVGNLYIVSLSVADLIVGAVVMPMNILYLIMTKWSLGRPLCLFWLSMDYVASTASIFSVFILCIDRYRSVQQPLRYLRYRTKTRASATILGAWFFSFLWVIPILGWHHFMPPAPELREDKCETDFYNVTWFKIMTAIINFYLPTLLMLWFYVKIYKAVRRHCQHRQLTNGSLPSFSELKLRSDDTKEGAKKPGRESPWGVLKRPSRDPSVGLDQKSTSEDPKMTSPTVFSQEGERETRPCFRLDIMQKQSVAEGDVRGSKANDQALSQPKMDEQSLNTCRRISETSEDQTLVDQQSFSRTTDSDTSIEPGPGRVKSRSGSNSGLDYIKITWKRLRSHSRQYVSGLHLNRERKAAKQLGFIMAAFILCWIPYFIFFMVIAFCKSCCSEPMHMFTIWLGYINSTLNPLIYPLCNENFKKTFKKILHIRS

On to `CNCCCN1c2ccccc2CCc2ccccc21` [Desmethylimipramine], for which the Ki was greater than 10 µM in test [1] and 0.05 µM in test [2].
`COc1ccc(C(CN(C)C)C2(O)CCCCC2)cc1` (stereo not given) [NSC_62923]: the Ki (in test [1]; on Histamine H1 receptor; in test [2]) was greater than 10 µM throughout.

The Ki is the equilibrium dissociation constant of an inhibitor or competing ligand from its target.
